Type in all cases: biochemical
One assay concerns the target c-Met (Homo sapiens, UniProt P08581). The assay is described as follows: c-Met Inhibition Assay, coupled enzyme system. To be noted: enzyme inhibition data (Ki), Table 11. The method in brief: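 Pyruvate kinase/lactate dehydrogenase-coupled NADH assay in HEPES pH 7.5 with 80 nM c-Met, 200 μM ATP and 10 μM polyGluTyr at 30° C. Compound (0.006–12.5 μM final, 12-point) preincubated 10 min before ATP start; rates over 10 min gave Ki.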

The target in another assay is T1, Itk (Homo sapiens, UniProt Q08881).
T1 sequence (Q08881 1-620): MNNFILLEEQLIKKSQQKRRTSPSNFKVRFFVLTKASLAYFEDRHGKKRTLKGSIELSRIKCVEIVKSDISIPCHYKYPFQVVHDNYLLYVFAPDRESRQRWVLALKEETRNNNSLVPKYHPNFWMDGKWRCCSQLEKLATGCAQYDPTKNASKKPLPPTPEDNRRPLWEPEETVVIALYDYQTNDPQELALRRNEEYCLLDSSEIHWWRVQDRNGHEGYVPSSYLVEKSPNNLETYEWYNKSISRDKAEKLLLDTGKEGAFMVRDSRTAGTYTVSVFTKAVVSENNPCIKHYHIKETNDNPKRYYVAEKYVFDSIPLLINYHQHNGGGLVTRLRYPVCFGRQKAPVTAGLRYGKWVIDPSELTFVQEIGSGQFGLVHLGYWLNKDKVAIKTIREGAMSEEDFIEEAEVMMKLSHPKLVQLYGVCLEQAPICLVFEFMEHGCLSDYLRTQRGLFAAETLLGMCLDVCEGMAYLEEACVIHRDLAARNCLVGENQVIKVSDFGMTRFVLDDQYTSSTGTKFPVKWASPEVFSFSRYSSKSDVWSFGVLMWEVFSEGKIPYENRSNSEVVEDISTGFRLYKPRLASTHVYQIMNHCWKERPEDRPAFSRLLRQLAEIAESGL
The assay is described as follows: ITK Inhibition Assay (Radiometric), radioactive-phosphate incorporation. To be noted: enzyme inhibition data (Ki), Table 11; radiometric or UV assay not stated. Summed up: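 Radiometric 33P incorporation into SAM68 peptide (D332-443) with filter capture and scintillation counting; 10 min pre-incubation then 10 min reaction at 25° C. IC50 format: 30 nM Itk, 15 μM ATP, 2 μM peptide, HEPES pH 7.5. Ki(app) format: 50 nM Itk, 7.5 μM ATP, 3 μM peptide, MOPS pH 7.0.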

A further assay has as its target T2, JAK3 (Homo sapiens, UniProt P52333).
T2 sequence (P52333 1-1124): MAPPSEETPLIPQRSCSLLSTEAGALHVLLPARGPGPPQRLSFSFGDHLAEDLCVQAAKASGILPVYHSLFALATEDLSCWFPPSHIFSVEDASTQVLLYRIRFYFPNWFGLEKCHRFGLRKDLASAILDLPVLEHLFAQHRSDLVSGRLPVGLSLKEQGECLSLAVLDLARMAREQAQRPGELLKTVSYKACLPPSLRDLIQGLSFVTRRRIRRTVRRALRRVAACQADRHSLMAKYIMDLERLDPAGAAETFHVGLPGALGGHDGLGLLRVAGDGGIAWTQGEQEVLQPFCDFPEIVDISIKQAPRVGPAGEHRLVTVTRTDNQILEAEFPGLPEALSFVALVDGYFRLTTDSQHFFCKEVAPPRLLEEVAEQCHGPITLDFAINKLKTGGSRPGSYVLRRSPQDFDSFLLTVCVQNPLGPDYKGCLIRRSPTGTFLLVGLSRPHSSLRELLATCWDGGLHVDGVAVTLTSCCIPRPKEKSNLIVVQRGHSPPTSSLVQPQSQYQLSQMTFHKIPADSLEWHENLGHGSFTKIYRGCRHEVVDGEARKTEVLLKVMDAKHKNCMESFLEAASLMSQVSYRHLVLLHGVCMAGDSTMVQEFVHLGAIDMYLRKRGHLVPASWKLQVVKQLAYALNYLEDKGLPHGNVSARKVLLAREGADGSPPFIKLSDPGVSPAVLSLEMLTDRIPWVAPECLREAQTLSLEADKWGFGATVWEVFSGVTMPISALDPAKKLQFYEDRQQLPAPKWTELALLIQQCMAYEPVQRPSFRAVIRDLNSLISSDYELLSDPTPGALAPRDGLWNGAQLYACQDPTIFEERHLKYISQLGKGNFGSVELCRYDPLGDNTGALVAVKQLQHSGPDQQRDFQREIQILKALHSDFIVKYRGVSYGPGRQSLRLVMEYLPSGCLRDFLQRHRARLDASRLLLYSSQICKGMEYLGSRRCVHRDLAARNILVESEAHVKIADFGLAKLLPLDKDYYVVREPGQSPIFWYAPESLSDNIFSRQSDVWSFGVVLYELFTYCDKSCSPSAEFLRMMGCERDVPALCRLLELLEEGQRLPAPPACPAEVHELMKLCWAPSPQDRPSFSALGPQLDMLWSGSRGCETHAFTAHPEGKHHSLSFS
Nature of the assay: JAK3 Inhibition Assay, 33P incorporation. Particulars: enzyme inhibition data (Ki), Table 11. Summed up: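 Recombinant JAK3 at 1 nM in HEPES pH 7.4 buffer with 10 mM MgCl2, 1 mM DTT and 0.01% BSA. Substrates were 5 μM ATP (200 uCi/μmole) and 1 μM poly(Glu)4Tyr, reacted 20 min at 25 °C. Stopped with TCA, and 33P incorporation counted on glass fiber filters.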

Chain of c-Met (P08581 25-1390): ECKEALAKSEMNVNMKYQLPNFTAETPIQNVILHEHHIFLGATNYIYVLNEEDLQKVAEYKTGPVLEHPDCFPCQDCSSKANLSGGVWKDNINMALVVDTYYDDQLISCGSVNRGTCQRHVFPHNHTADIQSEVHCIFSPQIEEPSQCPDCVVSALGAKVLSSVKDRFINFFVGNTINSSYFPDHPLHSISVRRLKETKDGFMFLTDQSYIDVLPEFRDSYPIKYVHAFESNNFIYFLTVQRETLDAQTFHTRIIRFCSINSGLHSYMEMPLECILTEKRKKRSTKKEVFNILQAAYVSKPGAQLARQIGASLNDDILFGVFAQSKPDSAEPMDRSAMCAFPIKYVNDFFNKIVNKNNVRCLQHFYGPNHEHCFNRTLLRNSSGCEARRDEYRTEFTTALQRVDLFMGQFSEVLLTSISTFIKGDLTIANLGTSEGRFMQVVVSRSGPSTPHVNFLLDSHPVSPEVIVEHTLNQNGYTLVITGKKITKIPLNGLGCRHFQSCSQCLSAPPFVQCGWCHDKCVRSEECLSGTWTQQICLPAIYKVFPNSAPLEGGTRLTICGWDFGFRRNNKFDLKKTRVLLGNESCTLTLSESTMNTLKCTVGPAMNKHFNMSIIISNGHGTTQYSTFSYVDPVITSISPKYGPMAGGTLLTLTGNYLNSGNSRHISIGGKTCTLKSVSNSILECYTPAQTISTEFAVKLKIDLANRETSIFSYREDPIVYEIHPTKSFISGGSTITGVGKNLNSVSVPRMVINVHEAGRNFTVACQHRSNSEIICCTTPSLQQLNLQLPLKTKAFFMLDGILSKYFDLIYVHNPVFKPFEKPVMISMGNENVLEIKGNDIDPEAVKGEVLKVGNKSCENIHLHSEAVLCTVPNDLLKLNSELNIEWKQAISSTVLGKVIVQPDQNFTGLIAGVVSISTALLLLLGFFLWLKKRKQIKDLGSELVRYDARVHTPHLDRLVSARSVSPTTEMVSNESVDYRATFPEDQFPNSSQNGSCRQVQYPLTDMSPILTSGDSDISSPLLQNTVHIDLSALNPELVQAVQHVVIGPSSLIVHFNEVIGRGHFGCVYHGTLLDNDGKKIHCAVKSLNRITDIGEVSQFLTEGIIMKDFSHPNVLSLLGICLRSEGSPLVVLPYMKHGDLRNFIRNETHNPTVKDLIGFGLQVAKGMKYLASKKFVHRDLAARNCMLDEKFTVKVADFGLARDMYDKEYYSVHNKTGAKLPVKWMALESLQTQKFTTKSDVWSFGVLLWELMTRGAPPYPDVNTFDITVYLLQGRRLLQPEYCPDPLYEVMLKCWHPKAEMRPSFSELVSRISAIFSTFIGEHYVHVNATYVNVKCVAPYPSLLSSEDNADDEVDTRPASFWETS

The Ki is a measure of affinity in units of concentration, obtained from inhibition or displacement. `Nc1nn2cc(-c3cccnc3N3CCC(N4CCCC4)CC3)cnc2c1-c1ccccn1` [Compound V-265]: the Ki at c-Met is 500 to 5000 nM; at Itk, 500 to 5000 nM; at JAK3, above 5000 nM.

As to `Nc1nn2cc(-c3cccnc3N3CCN(CCO)CC3)cnc2c1-c1ccccn1` [Compound V-266], the values for the Ki on c-Met, at Itk and on JAK3 were 500 to 5000 nM, 500 to 5000 nM and above 5000 nM, respectively.

As for `CN1CCCN(c2ncccc2-c2cnc3c(-c4ccccn4)c(N)nn3c2)CC1` [Compound V-267], the values for the Ki at c-Met, at Itk and at JAK3 were 500 to 5000 nM, 500 to 5000 nM and above 5000 nM, respectively.

In the case of `CN1CCN(c2ncccc2-c2cnc3c(-c4ccccn4)c(N)nn3c2)CC1` [Compound V-268], the results for the Ki on c-Met, on Itk and on JAK3 were 500 to 5000 nM, 500 to 5000 nM and above 5000 nM, respectively.

In the case of `CC(=O)N1CCN(c2ncccc2-c2cnc3c(-c4ccccn4)c(N)nn3c2)CC1` [Compound V-269], the inhibition constant Ki is 500 to 5000 nM on c-Met, 500 to 5000 nM at Itk and above 5000 nM on JAK3.

Take `Nc1nn2cc(-c3cccnc3N3CCCC(CO)C3)cnc2c1-c1ccccn1` (stereo not drawn) [Compound V-270]: the results for the Ki on c-Met, on Itk and on JAK3 were 500 to 5000 nM, 500 to 5000 nM and above 5000 nM, respectively.

In the case of `Nc1nn2cc(-c3cccnc3N3CCC(CCO)CC3)cnc2c1-c1ccccn1` [Compound V-271], the inhibition constant Ki on c-Met is 500 to 5000 nM; on Itk it was 500 to 5000 nM; on JAK3 it was above 5000 nM.

As to `Nc1nn2cc(N3CCC[C@@H]3CN3CCCC3)cnc2c1-c1ccccn1` [Compound V-272], the Ki was 500 to 5000 nM on c-Met, 500 to 5000 nM at Itk and above 5000 nM on JAK3.

`Cc1cnc2c(-c3cc(NCc4cc(Cl)ccc4Cl)ncn3)c(N)nn2c1` [Compound V-275]: the Ki on c-Met is 500 to 5000 nM; on Itk, 500 to 5000 nM; at JAK3 it was above 5000 nM.

Take `CCC(C)Nc1cc(-c2c(N)nn3cc(C)cnc23)ncn1` (stereo not drawn) [Compound V-282]: the Ki at c-Met is below 500 nM; on Itk it was 500 to 5000 nM; at JAK3 it was 500 to 5000 nM.

Take `Cc1cnc2c(-c3cc(NC(C)CO)ncn3)c(N)nn2c1` (stereo not drawn) [Compound V-283]: the Ki at c-Met, on Itk and on JAK3 was 500 to 5000 nM in each case.

In the case of `Cc1cnc2c(-c3cc(NC4CCN(C)CC4)ncn3)c(N)nn2c1` [Compound V-284], the values for the Ki at c-Met, on Itk and on JAK3 were below 500 nM, 500 to 5000 nM and 500 to 5000 nM, respectively.

Regarding `CC[C@H](CO)Nc1cc(-c2c(N)nn3cc(C)cnc23)ncn1` [Compound V-287], the Ki at c-Met was below 500 nM; at Itk it was 500 to 5000 nM; at JAK3 it was 500 to 5000 nM.

As for `CCC(CO)Nc1cc(-c2c(N)nn3cc(C)cnc23)ncn1` (stereo not drawn) [Compound V-288], the Ki on c-Met is below 500 nM; on Itk, below 500 nM; at JAK3 it was 500 to 5000 nM.

In the case of `COC[C@H](C)Nc1cc(-c2c(N)nn3cc(C)cnc23)ncn1` [Compound V-292], the Ki is below 500 nM at c-Met, 500 to 5000 nM on Itk and 500 to 5000 nM on JAK3.

Take `Cc1cnc2c(-c3cc(N[C@@H](C)C(C)C)ncn3)c(N)nn2c1` [Compound V-296]: the values for the Ki at c-Met, at Itk and on JAK3 were below 500 nM, below 500 nM and 500 to 5000 nM, respectively.

With `Cc1cnc2c(-c3cc(N[C@H](C)C4CCCCC4)ncn3)c(N)nn2c1` [Compound V-297], the results for the Ki at c-Met, on Itk and at JAK3 were below 500 nM, 500 to 5000 nM and 500 to 5000 nM, respectively.

For the compound `Cc1cnc2c(-c3cc(N[C@H](CO)CC(C)C)ncn3)c(N)nn2c1` [Compound V-298], the Ki on c-Met was below 500 nM; at Itk it was below 500 nM; on JAK3, 500 to 5000 nM.

Consider `Cc1cnc2c(-c3cc(N4CCCC4C)ncn3)c(N)nn2c1` (stereo not drawn) [Compound V-299], for which the Ki at c-Met, at Itk and at JAK3 was below 500 nM throughout.

`COC[C@H]1CCCN1c1cc(-c2c(N)nn3cc(C)cnc23)ncn1` [Compound V-302]: the Ki is below 500 nM at c-Met, below 500 nM at Itk and 500 to 5000 nM at JAK3.

`Cc1cnc2c(-c3cc(N4CCC(c5ccccc5)C4)ncn3)c(N)nn2c1` (stereo not drawn) [Compound V-303]: the Ki at c-Met, on Itk and on JAK3 was 500 to 5000 nM each time.

Regarding `Cc1cnc2c(-c3cc(N4CCC(CCc5ccccc5)C4)ncn3)c(N)nn2c1` (stereo not drawn) [Compound V-304], the results for the Ki at c-Met, at Itk and on JAK3 were 500 to 5000 nM, 500 to 5000 nM and above 5000 nM, respectively.

As to `Cc1cnc2c(-c3cc(N4CCC[C@H]4CN4CCCC4)ncn3)c(N)nn2c1` [Compound V-305], the Ki at c-Met was 500 to 5000 nM; at Itk it was 500 to 5000 nM; at JAK3, above 5000 nM.

For `Cc1cnc2c(-c3cc(N4CCC[C@H]4CO)ncn3)c(N)nn2c1` [Compound V-306], the figures for the Ki on c-Met, at Itk and at JAK3 were below 500 nM, 500 to 5000 nM and 500 to 5000 nM, respectively.

For the compound `Cc1cnc2c(-c3cc(N4CCCC4c4ccc(F)cc4)ncn3)c(N)nn2c1` (stereo not drawn) [Compound V-307], the Ki on c-Met is below 500 nM; at Itk it was 500 to 5000 nM; at JAK3 it was 500 to 5000 nM.

In the case of `Cc1cnc2c(-c3cc(N4CCC(S(C)(=O)=O)C4)ncn3)c(N)nn2c1` (stereo not drawn) [Compound V-308], the Ki on c-Met, at Itk and on JAK3 was below 500 nM throughout.

On to `Cc1cnc2c(-c3cc(N4CCCC(C(N)=O)C4)ncn3)c(N)nn2c1` (stereo not drawn) [Compound V-309], for which the Ki on c-Met is below 500 nM; at Itk it was 500 to 5000 nM; at JAK3 it was below 500 nM.

Turning to `Nc1nn2cc(CCCO)cnc2c1-c1ccccn1` [Compound V-310], the Ki on c-Met is 500 to 5000 nM; at Itk, 500 to 5000 nM; at JAK3, above 5000 nM.

Regarding `Nc1nn2cc(CCCN3CCCC3)cnc2c1-c1ccccn1` [Compound V-311], the results for the Ki on c-Met, on Itk and at JAK3 were below 500 nM, 500 to 5000 nM and above 5000 nM, respectively.

`Nc1nn2cc(CCCN3CCCCC3)cnc2c1-c1ccccn1` [Compound V-312]: the Ki at c-Met was 500 to 5000 nM; on Itk, 500 to 5000 nM; on JAK3 it was above 5000 nM.

Consider `Nc1nn2cc(CCCN3CCOCC3)cnc2c1-c1ccccn1` [Compound V-313], for which the Ki at c-Met is 500 to 5000 nM; at Itk, 500 to 5000 nM; at JAK3 it was above 5000 nM.

Turning to `Nc1nn2cc(CCCN3CCNCC3)cnc2c1-c1ccccn1` [Compound V-314], the Ki is 500 to 5000 nM at c-Met, 500 to 5000 nM on Itk and above 5000 nM on JAK3.

With `CCN1CCN(CCCc2cnc3c(-c4ccccn4)c(N)nn3c2)CC1` [Compound V-315], the Ki at c-Met was 500 to 5000 nM; on Itk, 500 to 5000 nM; on JAK3, above 5000 nM.

(Values after patent US7528138B2, “Pyrazolo[1,5-a]pyrimidines useful as inhibitors of protein kinases” (Vertex Pharmaceuticals Incorporated, priority 2004, dated 2009).)
